Measurements published in US10597398B2, “Suppression and regeneration promoting effect of low molecular weight compound on cancer and fibrosis” (NATIONAL UNIVERSITY CORPORATION TOTTORI UNIVERSITY, priority 2015, dated 2020).

How the values were obtained:
HuH-7 cells = assay: Growth inhibitory effect on cancer cells (WST assay), Example 2.3; type: cell-based, human; settings: HuH-7 cells, WST assay, concentrations 0-50 μM, control 0.1% DMSO
Procedure, shortened: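 HuH-7 human hepatoma cells seeded at 5×10^3 cells/well, treated after 24 h with compound at 0–50 μM (0.1% DMSO vehicle control), n=3. Viability read by WST (CCK-8) absorbance at 450/600 nm after 60 min at 37 °C, taken 0, 24, 48 and 96 h post-treatment; kit-only blank subtracted.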

Wnt/β-catenin signal = settings: as described in Patent Literature 1; cited from earlier work
[1] = tested on: cancer stem cells (CD44) in HuH-7 cells; assay: Inhibitory effect on cancer stem cells (FCM analysis of CD44), Example 6.4; type: cell-based, human; settings: CD44, day 2, IC-2 50 μM, 5-FU 0.5 μM, compared with control 1% DMSO
Procedure: CD44, a cancer stem cell marker, was used as an indicator to examine an inhibitory effect of IC-2 on cancer stem cells. First, 70 to 90% confluent HuH-7 cells were harvested and seeded at 1.5×10^6 cells per 10-cm cell culture dish. After 15 h, the cells were treated with hexachlorophene (15 μM), ICG-001 (15 μM), PKF118-310 (5 μM), IC-2 (50 μM), or 5-FU (0.5 μM), and the mixture was cultured at 37° C. Each control sample used was 1% DMSO, a solvent for each compound or the anti-cancer drug. Day 2 after the drug treatment, the cells were harvested from each culture dish. The cells were centrifuged at 1000 rpm and at 4° C. for 5 min to remove a supernatant and were then washed twice with 1 mL of 0.5% FBS/2 mM EDTA/PBS. Next, the cells were suspended in 500 μL of 5% BSA/0.5% FBS/2 mM EDTA/PBS for blocking at 4° C. for 15 min.
Then, 5 μL of a mouse anti-human CD44 monoclonal antibody (156-3C11, Cell Signaling Technology Inc., Danvers, Mass.) was added to 500 μL of the cell suspension. The mixture was resuspended and subjected to a primary antibody reaction in a dark room at 4° C. for 10 min. After that, the cells were washed 3 times with 1 mL of PBS. Subsequently, 1.0 μg of Alexa Fluor 488-labeled IgG (H+L) (Life Technologies Corp., Carlsbad, Calif.) was added and the mixture was suspended. Then, a secondary antibody reaction was carried out in a dark room at 4° C. for 10 min. […]

Structure (SMILES) | IC50 (HuH-7 cells) [µM] | Wnt/β-catenin signal in a mesenchymal stem cell and differentiation into hepatocytes (Wnt/β-catenin signal) | number of cancer stem cells [1]
COc1ccc(COc2ccc(CNC(=O)N3CCC(=O)N4C(Cc5ccccc5)C(=O)N(Cc5cccc6ccccc56)CC34)cc2)cc1 (stereo not drawn) [IC-2-OPMB] | > 50 |  | 
O=C1C(Cc2ccccc2)N2C(=O)CCN(C(=O)NCc3ccccc3)C2CN1Cc1cccc2ccccc12 (stereo not drawn) [IC-2] |  | inhibit a Wnt/β-catenin signal in a mesenchymal stem cell, thereby inducing differentiation of the mesenchymal stem cell into hepatocytes | significant reduction in the number of cancer stem cells
